Experimental data: ChEMBL document CHEMBL3045382, “Synthesis of a ligandquencher conjugate for the ligand binding study of the aryl hydrocarbon receptor using a FRET assay” (Med Chem Res, 2012); call rule not given here

Experiments:
[1] = molecular target: T1, Aryl hydrocarbon receptor (Homo sapiens, UniProt P35869); assay: Binding affinity to aryl hydrocarbon receptor in Homo sapiens (human) Hep3B cells assessed as upregulation of DRE-driven luciferase expression at 10 uM after 6 hr by Western blot analysis; type: cell-based; details: hep 3b2, 6 h
T1 sequence (P35869 whole entry): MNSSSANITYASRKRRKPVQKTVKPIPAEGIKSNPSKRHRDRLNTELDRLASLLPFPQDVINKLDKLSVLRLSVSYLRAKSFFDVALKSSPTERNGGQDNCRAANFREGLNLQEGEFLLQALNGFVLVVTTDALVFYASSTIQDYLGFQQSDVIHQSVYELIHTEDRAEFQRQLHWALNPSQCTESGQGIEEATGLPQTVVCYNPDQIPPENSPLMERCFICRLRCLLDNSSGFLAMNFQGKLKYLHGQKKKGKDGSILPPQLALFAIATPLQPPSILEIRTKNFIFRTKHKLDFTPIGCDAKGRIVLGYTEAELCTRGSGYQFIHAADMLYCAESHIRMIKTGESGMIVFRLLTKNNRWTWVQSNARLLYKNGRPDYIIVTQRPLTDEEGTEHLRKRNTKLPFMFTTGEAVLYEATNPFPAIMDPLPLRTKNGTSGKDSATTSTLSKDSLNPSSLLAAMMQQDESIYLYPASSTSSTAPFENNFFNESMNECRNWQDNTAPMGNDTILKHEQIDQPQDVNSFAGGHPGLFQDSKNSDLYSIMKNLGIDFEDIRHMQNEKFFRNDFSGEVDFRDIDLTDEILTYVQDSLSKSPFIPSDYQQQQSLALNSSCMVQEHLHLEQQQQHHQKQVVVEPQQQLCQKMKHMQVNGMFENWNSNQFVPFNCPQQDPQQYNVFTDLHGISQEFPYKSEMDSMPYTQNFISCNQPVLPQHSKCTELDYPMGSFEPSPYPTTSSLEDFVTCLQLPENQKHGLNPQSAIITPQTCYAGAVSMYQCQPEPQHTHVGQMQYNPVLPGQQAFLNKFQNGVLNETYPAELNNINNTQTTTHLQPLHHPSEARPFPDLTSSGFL

[2] = molecular target: T1, Aryl hydrocarbon receptor; assay: Binding affinity to full length N-terminal GFP-fused Homo sapiens (human) aryl hydrocarbon receptor ligand binding domain (848 amino acid residues) expressed in baculovirus infected Sf9 cells assessed as fluorescence quenching at 10 uM after 5 min by fluorescence microscopic analysis; details: sf9, 5 min
[3] = molecular target: T2, Aryl hydrocarbon receptor (Rattus norvegicus, UniProt P41738); assay: Partial agonist activity at DRE-driven GFP-fused AhR ligand binding domain in rat H4G1.1c3 cells assessed as induction of DRE-driven GFP expression at 50 uM after 48 hr by fluorescence assay; type: cell-based
T2 sequence (P41738 whole entry): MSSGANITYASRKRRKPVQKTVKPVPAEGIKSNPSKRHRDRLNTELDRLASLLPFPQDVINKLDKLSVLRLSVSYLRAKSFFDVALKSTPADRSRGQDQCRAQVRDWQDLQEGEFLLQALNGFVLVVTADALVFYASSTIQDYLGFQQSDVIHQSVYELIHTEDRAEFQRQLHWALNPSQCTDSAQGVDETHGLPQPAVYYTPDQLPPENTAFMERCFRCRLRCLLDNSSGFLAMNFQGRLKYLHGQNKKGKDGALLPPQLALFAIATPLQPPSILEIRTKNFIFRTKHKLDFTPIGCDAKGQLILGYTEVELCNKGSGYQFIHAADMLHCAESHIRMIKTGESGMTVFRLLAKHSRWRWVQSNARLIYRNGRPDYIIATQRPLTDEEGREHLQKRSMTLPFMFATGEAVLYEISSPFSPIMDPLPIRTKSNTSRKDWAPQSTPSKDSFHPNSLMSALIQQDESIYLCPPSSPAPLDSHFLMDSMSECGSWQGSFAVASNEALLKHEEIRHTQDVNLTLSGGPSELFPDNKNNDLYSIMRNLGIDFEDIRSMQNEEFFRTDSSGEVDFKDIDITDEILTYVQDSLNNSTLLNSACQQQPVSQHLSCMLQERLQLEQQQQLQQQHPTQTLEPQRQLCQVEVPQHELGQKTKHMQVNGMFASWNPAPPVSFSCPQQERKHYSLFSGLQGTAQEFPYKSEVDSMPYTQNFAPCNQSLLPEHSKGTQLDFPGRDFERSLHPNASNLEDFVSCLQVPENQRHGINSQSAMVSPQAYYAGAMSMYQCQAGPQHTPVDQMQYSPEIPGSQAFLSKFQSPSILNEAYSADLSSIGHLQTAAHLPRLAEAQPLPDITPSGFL

[4] = molecular target: T1, Aryl hydrocarbon receptor; assay: Competitive binding affinity to aryl hydrocarbon receptor in Homo sapiens (human) Hep3B cells assessed as effect on betaNF-mediated DRE-driven luciferase expression at 10 uM after 6 hr by Western blot analysis relative to control; type: cell-based; details: hep 3b2, 6 h
[5] = molecular target: T1, Aryl hydrocarbon receptor; assay: Binding affinity to full length N-terminal GFP-fused Homo sapiens (human) aryl hydrocarbon receptor ligand binding domain (848 amino acid residues) expressed in baculovirus infected Sf9 cells assessed as fluorescence quenching at 10 uM after 10 min by fluorescence microscopic analysis; details: sf9, 10 min
[6] = molecular target: T1, Aryl hydrocarbon receptor; assay: Binding affinity to aryl hydrocarbon receptor in Homo sapiens (human) Hep3B cells assessed as upregulation of DRE-driven luciferase expression at 10 uM after 6 hr by Western blot analysis relative to control; type: cell-based, Hep 3B2; details: Hep3B cells with DRE-driven luciferase reporter, read-out: FC
[7] = molecular target: T2, Aryl hydrocarbon receptor; assay: Agonist activity at DRE-driven GFP-fused AhR ligand binding domain in rat H4G1.1c3 cells assessed as induction of DRE-driven GFP expression at 10 uM after 48 hr by fluorescence assay; type: cell-based
[8] = Cytotoxicity against rat H4G1.1c3 cells at 10 to 50 uM after 24 hr; type: cell-based
[9] = molecular target: T1, Aryl hydrocarbon receptor; assay: (§1) Competitive binding affinity to full length N-terminal GFP-fused Homo sapiens (human) aryl hydrocarbon receptor ligand binding domain (848 amino acid residues) expressed in baculovirus infected Sf9 cells assessed as reversal of betaNFQ-mediated fluorescence quenching at 5 uM measured at 5 min by fluorescence microscopic analysis; details: sf9, 5 min
[10] = molecular target: T1, Aryl hydrocarbon receptor; assay: as §1, with “4-((4-(dimethylamino)phenyl)diazenyl)-N-(2-(2-(2-(2-hydroxyethoxy)ethoxy)ethoxy)ethyl)benzamide4-((4-(dimethylamino)phenyl)diazenyl)-N-(2-(2-(2-(2-hydroxyethoxy)ethoxy)ethoxy)ethyl)benzamide-mediated” for “betaNFQ-mediated”; details: sf9, 5 min
[11] = molecular target: T1, Aryl hydrocarbon receptor; assay: Binding affinity to full length N-terminal GFP-fused Homo sapiens (human) aryl hydrocarbon receptor ligand binding domain (848 amino acid residues) expressed in baculovirus infected Sf9 cells assessed as fluorescence quenching at 10 uM up to 30 min by fluorescence microscopic analysis; details: sf9, 0.5 h
[12] = molecular target: T1, Aryl hydrocarbon receptor; assay: Competitive binding affinity to aryl hydrocarbon receptor in Homo sapiens (human) Hep3B cells assessed as supression of betaNF-mediated DRE-driven luciferase expression at 10 uM after 6 hr by Western blot analysis relative to control; type: cell-based; details: hep 3b2, 6 h

Activity [2] [%] | Activity [3] | Activity [5] [%] | fold induction at 6 h, 10 µM [6] | SMILES | Activity [8] | other results
13 | Not Active | 16 | – | CN(C)c1ccc(/N=N/c2ccc(C(=O)NCCOCCOCCOCCO)cc2)cc1 | – | Activity [1]: Not Active; Activity [4]: Not Active
– | – | – | 75 | O=c1cc(-c2ccccc2)oc2ccc3ccccc3c12 [BETA-NAPHTHOFLAVONE] | – | Activity [7]: Active
18 | Active | 24 | 14 | CN(C)c1ccc(/N=N/c2ccc(C(=O)NCCOCCOCCOCCOCc3ccc(-c4cc(=O)c5c(ccc6ccccc65)o4)cc3)cc2)cc1 | Non-toxic | Activity [11]: 29%; fold change (FC) [12]: 23

Further lines, the molecule ahead of its results:

SMILES | Activity [2] [%] | Activity [3] | Activity [5] [%] | fold induction at 6 h, 10 µM [6] | Activity [8] | other results
CN(C)c1ccc(/N=N/c2ccc(C(=O)NCCOCCOCCOCCOCCOCCOCCOCCOCc3ccc(-c4cc(=O)c5c(ccc6ccccc65)o4)cc3)cc2)cc1 | – | – | – | – | Toxic | –
Cc1ccc2cc3c(ccc4ccccc43)c3c2c1CC3 [3-METHYLCHOLANTHRENE] | – | – | – | – | – | Activity [9]: Active; Activity [10]: Not Active
